Assay results taken from publication PMC2691833 (Nucleic Acids Research, 2009).

Molecular target: T1, EcoR124I holoenzyme (Escherichia coli, UniProt P10486)
T1 sequence (P10486 1-1038): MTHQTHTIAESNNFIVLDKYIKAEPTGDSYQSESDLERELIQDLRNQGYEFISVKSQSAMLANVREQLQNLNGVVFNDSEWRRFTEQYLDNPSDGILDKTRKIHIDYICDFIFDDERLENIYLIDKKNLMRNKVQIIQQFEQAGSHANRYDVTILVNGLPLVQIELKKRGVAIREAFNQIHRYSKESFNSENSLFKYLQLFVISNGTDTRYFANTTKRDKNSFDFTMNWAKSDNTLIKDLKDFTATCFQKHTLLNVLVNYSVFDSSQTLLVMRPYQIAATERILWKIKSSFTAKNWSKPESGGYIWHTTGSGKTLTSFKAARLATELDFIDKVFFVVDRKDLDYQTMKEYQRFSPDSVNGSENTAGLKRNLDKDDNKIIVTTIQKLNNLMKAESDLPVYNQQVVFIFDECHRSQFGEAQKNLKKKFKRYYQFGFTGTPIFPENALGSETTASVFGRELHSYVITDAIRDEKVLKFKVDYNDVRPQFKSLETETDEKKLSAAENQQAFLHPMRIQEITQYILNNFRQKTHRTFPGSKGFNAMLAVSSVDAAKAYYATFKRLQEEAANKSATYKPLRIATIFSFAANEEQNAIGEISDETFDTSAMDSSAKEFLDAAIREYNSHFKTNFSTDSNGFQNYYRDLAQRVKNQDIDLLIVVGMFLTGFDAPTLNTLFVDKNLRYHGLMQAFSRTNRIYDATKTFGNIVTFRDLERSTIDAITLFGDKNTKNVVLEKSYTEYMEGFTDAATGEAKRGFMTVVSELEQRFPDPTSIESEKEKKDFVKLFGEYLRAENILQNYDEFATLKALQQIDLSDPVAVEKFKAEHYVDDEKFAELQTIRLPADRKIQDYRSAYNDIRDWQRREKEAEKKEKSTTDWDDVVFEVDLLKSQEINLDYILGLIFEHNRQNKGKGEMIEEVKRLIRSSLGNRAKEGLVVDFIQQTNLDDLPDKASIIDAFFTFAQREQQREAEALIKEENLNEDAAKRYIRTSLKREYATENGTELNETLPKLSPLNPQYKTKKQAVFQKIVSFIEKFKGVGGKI
T1 sequence (P10484 1-520 partner): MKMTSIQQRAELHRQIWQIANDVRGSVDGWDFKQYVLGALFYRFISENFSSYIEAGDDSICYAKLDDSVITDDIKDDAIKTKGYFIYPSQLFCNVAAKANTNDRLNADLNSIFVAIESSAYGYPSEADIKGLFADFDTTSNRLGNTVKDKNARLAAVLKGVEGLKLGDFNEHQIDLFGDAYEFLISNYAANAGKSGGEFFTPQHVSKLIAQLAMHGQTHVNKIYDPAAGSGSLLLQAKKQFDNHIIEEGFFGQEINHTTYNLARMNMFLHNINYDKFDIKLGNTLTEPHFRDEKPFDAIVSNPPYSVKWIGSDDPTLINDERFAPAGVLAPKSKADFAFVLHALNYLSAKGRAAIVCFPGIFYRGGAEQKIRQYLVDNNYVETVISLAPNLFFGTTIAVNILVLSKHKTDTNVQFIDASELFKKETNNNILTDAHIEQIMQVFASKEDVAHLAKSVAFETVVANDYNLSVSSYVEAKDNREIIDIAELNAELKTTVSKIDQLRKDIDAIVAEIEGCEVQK
T1 sequence (P10485 1-404 partner): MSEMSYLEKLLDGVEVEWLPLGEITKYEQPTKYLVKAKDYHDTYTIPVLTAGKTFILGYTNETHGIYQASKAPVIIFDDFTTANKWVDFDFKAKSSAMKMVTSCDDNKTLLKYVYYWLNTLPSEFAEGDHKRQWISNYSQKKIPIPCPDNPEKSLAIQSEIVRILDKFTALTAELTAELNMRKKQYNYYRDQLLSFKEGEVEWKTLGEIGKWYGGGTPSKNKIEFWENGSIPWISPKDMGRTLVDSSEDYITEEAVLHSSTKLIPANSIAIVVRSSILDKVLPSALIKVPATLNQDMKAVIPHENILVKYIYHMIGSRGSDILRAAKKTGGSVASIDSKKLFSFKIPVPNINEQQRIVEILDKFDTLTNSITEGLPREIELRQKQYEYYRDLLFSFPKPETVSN
Conditions: 1 mM ATP, 5 mM Mg(OAc)2, negatively supercoiled R+- or 2R+-DNA, pH 7.5, 25 °C

## Nc1ncnc2c1ncn2[C@@H]1O[C@H](COP(=O)(O)OP(=O)(O)OP(=O)(O)O)[C@@H](O)[C@H]1O [ATP]
  continuous coupled spectrophotometric ATPase assay: as total protein concentration increases, the initial rates of ATP hydrolysis increase accordingly
